System: SARS-CoV-2
Test: microbe, parasite or virus in culture
Conditions: Severe acute respiratory syndrome coronavirus 2, Vero C1008, 48 h

SMILES	IC50 [µM]	IC50 (read-out: pIC50 (converted)) [µM]
NC(=O)c1ccc([N+](=O)[O-])cc1Cl [AKLOMIDE]	> 20	> 20
O=C(/C=C/c1cccnc1)NCCCCC1CCN(C(=O)c2ccccc2)CC1 [DAPORINAD]	> 20	> 20
O=c1[nH]c(=O)n([C@@H]2O[C@H](CO)[C@@H](O)[C@@H]2O)cc1/C=C/Br [SORIVUDINE]	> 20	> 20
C[C@@H]1NC(=O)NC1=O	> 20	> 20
Cc1ncc([N+](=O)[O-])n1CC(O)CCl (centres undefined) [ORNIDAZOLE]	> 20	> 20
CC(C)(C)C(=O)Oc1ccc(S(=O)(=O)Nc2ccccc2C(=O)NCC(=O)O)cc1	> 20	> 20
CN(C)CCN(Cc1ccc(Cl)cc1)c1ccccn1 [CHLOROPYRAMINE]	> 20	> 20
C[C@H](N[C@@H](CCc1ccccc1)C(=O)O)C(=O)N1Cc2ccccc2C[C@H]1C(=O)O	> 20	> 20
Cc1cc2c(cc1S(N)(=O)=O)S(=O)(=O)CCC2	> 20	> 20
CN1[C@@H]2CC[C@H]1CC(NC(=O)n1c(=O)[nH]c3ccccc31)C2 (some centres undefined)	> 20	> 20
Cc1nc(N)nc(N)c1-c1ccc(Cl)c(Cl)c1 [METOPRINE]	> 20	> 20
OCc1ccccc1O[C@@H]1O[C@H](CO)[C@@H](O)[C@H](O)[C@H]1O [SALICIN]	> 20	> 20
CC1(C)S[C@@H]2[C@H](NC(=O)[C@H](N)c3ccc(O)cc3)C(=O)N2[C@H]1C(=O)O [AMOXICILLIN]	> 20	> 20
NC(=O)c1nc(F)cnc1O	> 50.1	> 50.1
O=C(/C=C/c1ccc(O)c(O)c1)c1ccc(O)cc1O [BUTEIN]	> 20	> 20
Cc1nnc2n1-c1ccc(Cl)cc1C(c1ccccc1)=NC2 [ALPRAZOLAM]	> 20	> 20
CC(C)(C)CC(=O)OCC(=O)[C@@]12OC(C)(C)O[C@@H]1C[C@H]1[C@@H]3CCC4=CC(=O)C=C[C@]4(C)[C@@]3(F)[C@@H](O)C[C@@]12C [TRIAMCINOLONE HEXACETONIDE]	> 20	> 20
O=C(OCc1ccccc1)c1ccc(O)cc1	> 20	> 20
CCN1C[C@]2(COC)CC[C@H](O)[C@]34C5C[C@@H]6[C@@H](OC)C[C@@](O)(C5[C@H]6OC)[C@@](O)([C@H]13)[C@@H](OC)C24 (some centres undefined)	> 20	> 20
O=C(O)CC(=O)C(=O)O [OXALOACETATE]	> 20	> 20
Cc1cn2nc([C@H]3CCCCN3C(=O)c3cc(Cl)ccc3NS(C)(=O)=O)cc2nc1N1CC[C@H](N)C1	> 20	> 20
CCN(CC)CCNC(=O)N(CCS(=O)(=O)c1ccccc1)C(C)C [SURICAINIDE]	> 20	> 20
Cc1c[nH]c2ccccc12	> 20	> 20
Cc1c(Cn2c(C)nc3c(C(=O)O)cc(N4CCOCC4)cc32)cccc1C(F)(F)F [GSK-2636771]	> 20	> 20
CC(C)NCC(O)c1ccc(NS(C)(=O)=O)cc1 (centres undefined) [SOTALOL]	> 20	> 20
CC(=O)NCCOC(=O)[C@H](Oc1cccc(C(F)(F)F)c1)c1ccc(Cl)cc1 [ARHALOFENATE]	> 20	> 20

SMILES	IC50 [µM]	IC50 (read-out: pIC50 (converted)) [µM]
C=C(C)[C@@H]1CC[C@]2(CO)CC[C@]3(C)[C@H](CC[C@@H]4[C@@]5(C)CC[C@H](O)C(C)(C)[C@@H]5CC[C@]43C)[C@@H]12 [BETULIN]	> 20	> 20
CCc1nc(C(N)=O)c(Nc2ccc(N3CCC(N4CCN(C)CC4)CC3)c(OC)c2)nc1NC1CCOCC1 [GILTERITINIB]	> 20	> 20
Cc1ccnc2c1NC(=O)c1cccnc1N2C1CC1 [NEVIRAPINE]	> 20	> 20
CC(C)(C)c1cnc(CSc2cnc(NC(=O)C3CCNCC3)s2)o1 [BMS-387032]	> 20	> 20
CC(C)(C)C(=O)NNCc1ccccc1 [PIVHYDRAZINE]	> 20	> 20
CCc1nn(CCO)c(CC)c1Oc1cc(C#N)cc(C#N)c1 [LERSIVIRINE]	> 20	> 20
OCCc1ccccc1 [PHENYLETHYL ALCOHOL]	> 20	> 20
CC(=O)Oc1cc(C(C)C)c(OCCN(C)C)cc1C [MOXISYLYTE]	> 20	> 20
C=C1c2c(Cl)ccc(O)c2C(=O)C2=C(O)[C@]3(O)C(=O)C(C(N)=O)=C(O)[C@@H](N(C)C)[C@@H]3[C@@H](O)C12 (some centres undefined)	> 20	> 20
O=C(c1ccc2nonc2c1)N1CCCCC1 [FARAMPATOR]	> 20	> 20
CCCCOc1ccc(CC(=O)NO)cc1 [BUFEXAMAC]	> 20	> 20
CCN1CCC(=C(c2ccccc2)c2ccccc2)C1 [PRIDEFINE]	> 20	> 20
CC(C)OC(=O)[C@H](C)N[P@@](=S)(OC[C@H]1O[C@@H](n2ccc(=O)[nH]c2=O)[C@](C)(O)[C@@H]1O)Oc1ccccc1	> 20	> 20
CC12CCC3C(CCC4(O)CC(O)CCC34C=O)C1(O)CCC2C1=CC(=O)OC1 (centres undefined)	> 20	> 20
C=C(C)[C@@H]1CC[C@]2(C(=O)O)CC[C@]3(C)[C@H](CC[C@@H]4[C@@]5(C)CC[C@H](OC(=O)CC(C)(C)C(=O)O)C(C)(C)[C@@H]5CC[C@]43C)[C@@H]12 [BEVIRIMAT]	> 20	> 20
CN(N=O)C(=O)N[C@@H](C=O)[C@@H](O)[C@H](O)[C@H](O)CO.CN(N=O)C(=O)N[C@H]1C(O)O[C@H](CO)[C@@H](O)[C@@H]1O	> 20	> 20
COc1cc(CC(C)N)c(OC)cc1C (centres undefined) [DOM]	> 20	> 20
O=C1O[C@H](CO)[C@@H](O)[C@H](O)[C@H]1O [GLUCONOLACTONE]	> 20	> 20
O=C(OCCN1CCOCC1)c1cccnc1Nc1cccc(C(F)(F)F)c1 [MORNIFLUMATE]	> 20	> 20
NCCC(O)C(=O)N[C@@H]1C[C@H](N)[C@@H](OC2O[C@H](CN)[C@@H](O)[C@H](O)[C@H]2N)[C@H](OC2O[C@H](CO)C(O)[C@H]2O)[C@H]1O (some centres undefined)	> 20	> 20
CC1(C)CC[C@]2(C(=O)O)CC[C@]3(C)C(=CC[C@@H]4[C@@]5(C)CC[C@H](O)C(C)(C)[C@@H]5CC[C@]43C)[C@@H]2C1 [OLEANOLIC_ACID]	> 20	> 20
OC(CCN1CCCC1)(c1ccccc1)C1CCCCC1 (centres undefined) [PROCYCLIDINE]	> 20	> 20
Nc1nc(N)c2nc(-c3cccc(O)c3)c(-c3cccc(O)c3)nc2n1 [TG100-115]	> 20	> 20
Cc1cccc(C)c1NC(=O)CN(CC(=O)O)CC(=O)O [LIDOFENIN]	> 20	> 20
CCC(CC)CC1(C(=O)Nc2ccccc2SC(=O)C(C)C)CCCCC1 [DALCETRAPIB]	> 20	> 20
Cc1ncc(CO)c(C=O)c1O [PYRIDOXAL]	> 20	> 20
